In the supplement of paper PMC5908809:

Experiments:
[1] = system: IMC-1 (IL-2 20 ng/mL); experiment: percent inhibition of viability; higher = more inhibition; conditions: 72 h
[2] = system: normal primary NK cells, pool 3 (3 donors) (IL-2 2.5 ng/mL); experiment: as above; conditions: 72 h
[3] = system: NK-YS (IL-2 2.5 ng/mL); experiment: as above; conditions: 72 h
[4] = system: YT (IL-2 2.5 ng/mL); experiment: as above; conditions: 72 h
[5] = system: NK-92 (IL-2 2.5 ng/mL); experiment: as above; conditions: 72 h
[6] = system: normal primary NK cells, pool 1 (3 donors) (IL-2 2.5 ng/mL); experiment: as above; conditions: 72 h
[7] = system: DERL-7 (IL-2 2.5 ng/mL); experiment: as above; conditions: 72 h
[8] = system: normal primary NK cells, pool 1 (3 donors), resting (IL-2 0 ng/mL); experiment: as above; conditions: 72 h
[9] = system: NKL (IL-2 2.5 ng/mL); experiment: as above; conditions: 72 h
[10] = system: KHYG-1 (IL-2 2.5 ng/mL); experiment: as above; conditions: 72 h
[11] = system: normal primary NK cells, pool 2 (3 donors) (IL-2 2.5 ng/mL); experiment: as above; conditions: 72 h
[12] = system: KAI3 (IL-2 2.5 ng/mL); experiment: as above; conditions: 72 h
[13] = system: SNK-6 (IL-2 2.5 ng/mL); experiment: as above; conditions: 72 h
[14] = system: normal NK cells expanded with K562-aAPC; experiment: drug sensitivity score (DSS) (DSS units); higher = more sensitive; extreme values may be limits of the assay; conditions: 72 h; IL-2 2.5 ng/mL
Description: (§1)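 Drug sensitivity and resistance testing on K562-aAPC-expanded normal NK cells: 5 concentrations (10-fold steps over a 10,000-fold range), 72 h at 37 °C, viability by CellTiter-Glo normalised to DMSO and benzethonium chloride controls; DSS from the fitted curve.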

[15] = system: normal NK cells expanded with K562-aAPC; experiment: percent inhibition of viability; higher = more inhibition; conditions: 72 h, IL-2 2.5 ng/mL
Description: as §1

[16] = system: IMC-1 (IL-2 20 ng/mL); experiment: drug sensitivity score (DSS) (DSS units); higher = more sensitive; extreme values may be limits of the assay; conditions: 72 h
[17] = system: normal primary NK cells, pool 3 (3 donors) (IL-2 2.5 ng/mL); experiment: as above; conditions: 72 h
[18] = system: NK-YS (IL-2 2.5 ng/mL); experiment: as above; conditions: 72 h
[19] = system: YT (IL-2 2.5 ng/mL); experiment: as above; conditions: 72 h
[20] = system: NK-92 (IL-2 2.5 ng/mL); experiment: as above; conditions: 72 h
[21] = system: normal primary NK cells, pool 1 (3 donors) (IL-2 2.5 ng/mL); experiment: as above; conditions: 72 h
[22] = system: DERL-7 (IL-2 2.5 ng/mL); experiment: as above; conditions: 72 h
[23] = system: normal primary NK cells, pool 1 (3 donors), resting (IL-2 0 ng/mL); experiment: as above; conditions: 72 h
[24] = system: NKL (IL-2 2.5 ng/mL); experiment: as above; conditions: 72 h
[25] = system: KHYG-1 (IL-2 2.5 ng/mL); experiment: as above; conditions: 72 h
[26] = system: normal primary NK cells, pool 2 (3 donors) (IL-2 2.5 ng/mL); experiment: as above; conditions: 72 h
[27] = system: KAI3 (IL-2 2.5 ng/mL); experiment: as above; conditions: 72 h
[28] = system: SNK-6 (IL-2 2.5 ng/mL); experiment: as above; conditions: 72 h

Cc1ncc(-c2ccnc(Nc3ccc(S(C)(=O)=O)cc3)n2)n1C(C)C [AZD-5438] (max concentration tested 10000 nM)
percent inhibition of viability [%]
Conditions	1 nM	10 nM	100 nM	1000 nM	10000 nM
[1]	-2.44	-0.85	6.12	39.1	101
[2]	-7.04	-10.4	1.54	18.4	99.4
[3]	-2.69	-3.59	1.96	59.8	103
[4]	-1.56	-0.25	0.72	24	105
[5]	-5.15	-8.65	-22.7	-0.77	104
[6]	-7.21	-12.4	-17.5	11.4	98
[7]	-5.59	2.74	-9.82	31.4	100
[8]	4.17	-8.18	-42.6	-99.9	91.4
[9]	-7.07	-5.93	-18.1	3.89	103
[10]	0.77	0.77	0.38	45.4	105
[11]	-12.1	-8.8	-8.52	15.6	96.9
[12]	-3.46	-9.8	-5.74	41.5	102
[13]	-9.66	-5.34	6.52	-1.33	58.4
[15]	0.15	-0.53	-5.24	6.05	101

Conditions	drug sensitivity score
[14]	6.5
[16]	10.5
[17]	8.5
[18]	12.6
[19]	9.28
[20]	5.86
[21]	7.3
[22]	10
[23]	3.02
[24]	6.34
[25]	11.3
[26]	7.94
[27]	11
[28]	3.04

Cc1cc(OCc2nnc(SC3CCCC3)n2-c2cccnc2)ccc1-c1ccc(S(C)(=O)=O)cc1 [NMS-873] (max concentration tested 10000 nM)
percent inhibition of viability [%]
Conditions	1 nM	10 nM	100 nM	1000 nM	10000 nM
[1]	2.03	32.2	95.6	39.2	101
[2]	-2.38	0.99	24.8	27	99.8
[3]	6.01	11.3	46.8	84.8	107
[4]	-2.33	20.6	83.1	56.4	106
[5]	-7.23	-12.4	12.5	70.3	107
[6]	6.16	-1.92	22	43.5	98.7
[7]	8.88	2.79	15.8	34.8	101
[8]	-8.11	-16.4	24.5	58.2	91.2
[9]	11.2	14.7	26	52	106
[10]	3.36	6	38	65.7	107
[11]	-5.68	4.07	30.6	39.7	97.8
[12]	3.12	7.92	11.3	35.3	105
[13]	0.98	31.4	15.3	33.6	101
[15]	0.72	5.79	5.95	24.3	101

Conditions	drug sensitivity score
[14]	9.28
[16]	26.4
[17]	8.69
[18]	22.1
[19]	26.1
[20]	14.8
[21]	11.4
[22]	9.55
[23]	13.7
[24]	14.6
[25]	17.9
[26]	12.2
[27]	10.4
[28]	9.51

O=C(CCBr)N1CCN(C(=O)CCBr)CC1 [Pipobroman] (max concentration tested 10000 nM)
percent inhibition of viability [%]
Conditions	1 nM	10 nM	100 nM	1000 nM	10000 nM
[1]	-6.08	-8.46	-2.84	4.89	11.6
[2]	-9.04	-2.96	2.05	2.18	15.1
[3]	-6.73	-7.25	-3.41	11.6	20.9
[4]	-7.45	-10.7	-5.22	0.28	12.2
[5]	-22.2	-18.9	-1.01	4.98	22.7
[6]	1.85	-2.09	11.8	-0.73	2.49
[7]	-7.31	-1.37	2	-0.47	-5.96
[8]	2.78	-3.45	22.7	19.1	26.8
[9]	-27.2	-17.8	-14.3	16.6	15.7
[10]	-9.07	-13.9	-7.89	3.77	13.7
[11]	-5.41	-3.61	2.8	4.47	2.02
[12]	-6.26	-3.77	3.05	9.16	13.5
[13]	-14.3	-17.7	-17.4	-17.5	-6.39
[15]	-6.43	-6.37	-5.59	7.79	18.1

Conditions	drug sensitivity score
[14]	1.23
[16]	0.19
[17]	0.45
[18]	1.85
[19]	0.07
[20]	1.49
[21]	0
[22]	0
[23]	6.82
[24]	1.54
[25]	0.42
[26]	0
[27]	0.46
[28]	0

CO[C@H]1C[C@@H]2CC[C@@H](C)[C@@](O)(O2)C(=O)C(=O)N2CCCC[C@H]2C(=O)O[C@H]([C@H](C)C[C@@H]2CC[C@@H](O)[C@H](OC)C2)CC(=O)[C@H](C)/C=C(\C)[C@@H](O)[C@@H](OC)C(=O)[C@H](C)C[C@H](C)/C=C/C=C/C=C/1C [Sirolimus] (max concentration tested 100 nM)
percent inhibition of viability [%]
Conditions	0.01 nM	0.1 nM	1 nM	10 nM	100 nM
[1]	-3.21	1.18	-3.68	-15.7	-35.8
[2]	-9.48	-6.09	3.92	6.87	10.3
[3]	-0.35	1.64	29.4	54.6	58.5
[4]	-0.6	3.68	8.62	48.9	50
[5]	-4.22	6.09	10.4	22	41.1
[6]	0.77	-8.98	3.92	5.36	11.1
[7]	1.91	1.51	7.44	38.3	55.7
[8]	1.62	-12	3.7	1.9	13.7
[9]	10.2	24.2	45.2	58.8	68.7
[10]	-2.67	2.99	5.43	47.1	73.8
[11]	-8.36	2	15.3	16.1	24.9
[12]	-2.33	-1.67	15.9	44.7	54.9
[13]	7.11	11.7	26.8	58	53.6
[15]	-3.63	-1.36	3.81	13.8	18.7

Conditions	drug sensitivity score
[14]	1.68
[16]	0
[17]	0
[18]	13.8
[19]	10.3
[20]	4.93
[21]	0.01
[22]	8.02
[23]	0.29
[24]	19.3
[25]	9.94
[26]	3.82
[27]	10
[28]	13.6

CN(C)C[C@@H]1CCn2cc(c3ccccc32)C2=C(C(=O)NC2=O)c2cn(c3ccccc23)CCO1 [Ruboxistaurin] (max concentration tested 10000 nM)
percent inhibition of viability [%]
Conditions	1 nM	10 nM	100 nM	1000 nM	10000 nM
[1]	-5.42	-4.44	-4.88	-32.9	100
[2]	-10.5	-8.66	0.81	14.8	99.8
[3]	0.95	-3.62	0.25	24.6	97.6
[4]	0.39	0.99	-3.02	5.34	96
[5]	-3.12	-11.3	-3.13	2.96	98.9
[6]	-7.03	-9.34	0.45	29	99.8
[7]	-1.56	1.57	18.1	40.6	99.9
[8]	-16.4	-10.1	-8.8	45.3	99.1
[9]	-0.55	-7.15	3.58	36.2	93.1
[10]	1.18	0.63	1.33	34	98.9
[11]	-17.6	-5.86	-4.21	13.1	100
[12]	0.82	1.03	11.8	32	93.8
[13]	-9.54	1.49	-3.03	4.61	99.9
[15]	-0.21	-2.52	9.41	31.6	99.7

Conditions	drug sensitivity score
[14]	9.52
[16]	4.21
[17]	7.99
[18]	9.16
[19]	6.1
[20]	5.89
[21]	9.78
[22]	10.5
[23]	11.2
[24]	9.73
[25]	10.2
[26]	7.72
[27]	8.93
[28]	6.19
